{"source": "patent US9744181B2", "about": "“Compositions and methods for combination antiviral therapy” (priority 2003, dated 2017)", "key": {"HIV replication": {"test_system": "HIV replication", "conditions": "in combination with PMPA, d4T, ddC, nelfinavir, ritonavir, and saquinavir; cited from earlier work"}, "HIV": {"test_system": "HIV", "conditions": "patients, once-a-day dose of 200 mg"}, "[1]": {"conditions": "combination tablet, six months at 40° C./75% RH; for loss in % label strength: with desiccant, significant defined as ≧5% degradation"}, "HIV-1": {"test_system": "HIV-1", "conditions": "in combination with recombinant soluble CD4 castanosperinine and recombinant interferon-α; cited from earlier work"}, "[2]": {"test_system": "normal human bone marrow progenitor cells", "conditions": "AZT together with recombinant interferon-α; cited from earlier work"}}, "note": "Counter-ions that a name gives are not always drawn.", "data": [{"smiles": "CC(C)(C)C(=O)OCOP(=O)(COCCn1cnc2c(N)ncnc21)OCOC(=O)C(C)(C)C", "note": "[Adefovir dipivoxil]", "values": [{"measurement": "synergy of inhibition of HIV replication", "setting": "HIV replication", "result": "minor to moderate synergistic inhibition"}]}, {"smiles": "Nc1nc(=O)n([C@@H]2CS[C@H](CO)O2)cc1F", "note": "(single isomer, unassigned) [Emtricitabine]", "values": [{"measurement": "average reduction of viral load", "setting": "HIV", "result": 99, "unit": "%"}, {"measurement": "loss in % label strength", "setting": "[1]", "result": "No significant loss"}]}, {"smiles": "CC(C)OC(=O)OCOP(=O)(CO[C@H](C)Cn1cnc2c(N)ncnc21)OCOC(=O)OC(C)C", "note": "[Tenofovir disoproxil fumarate, 9-[(R)-2-[[bis[[(isopropoxycarbonyl)oxy]methoxy]phosphinyl]methoxy]propyl]adenine fumarate (1:1)]", "values": [{"measurement": "increase in the total degradation products", "setting": "[1]; packaged and stored with 3 grams of desiccant", "result": 1.5, "unit": "%"}, {"measurement": "loss in % label strength", "setting": "[1]", "result": "No significant loss"}]}, {"smiles": "Cc1cn([C@H]2C[C@H](N=[N+]=[N-])[C@@H](CO)O2)c(=O)[nH]c1=O", "note": "[AZT, 3′-azido, 3′-deoxythymidine]", "values": [{"measurement": "synergy of antiviral activity in vitro", "setting": "HIV-1", "result": "synergistic antiviral activity"}, {"measurement": "cytotoxic effect", "setting": "[2]", "result": "increased cytotoxic effect"}]}]}
